One molecule from patent US20110152092A1, “Herbicidal compositions comprising flufenacet” (Bayer CropScience AG, priority 2009, published 2011) can be followed below.

Molecules are shown by their SMILES.

Data set [1] relates to STEME. Nature of the data set: Greenhouse trial, activity with different soil types. Conditions: g of AS/ha: (A) 120, (B) 1200, (C) 90, mixture 120 + 1200 + 90. The format is in vivo, Stellaria media. Here is the method: (§1) In the standard design of the test, seeds of various broad-leaved weed and weed grass biotypes (origins) were sown in a 8-13 cm diameter pot filled with natural soil of a standard field soil (loamy silt; non-sterile) and covered with a covering soil layer of about 1 cm. The pots were then cultivated in a greenhouse (12-16 h of light, temperature day 20-22° C., night 15-18° C.) until the time of application. The pots were treated on a laboratory track sprayer with spray liquors comprising the compositions according to the invention, mixtures of the prior art or components used individually. Application of the active compounds or active compound combinations formulated as WG, WP, EC or otherwise was carried out at the appropriate growth stages of the plants. The application rate for the spray application was 100-600 l of water/ha. After the treatment, the plants were returned to the greenhouses.
(§2) About 3 weeks after the application, the soil action or/and foliar action was assessed visually according to a scale of 0-100% in comparison to an untreated comparative group: 0%=no noticeable effect compared to the untreated comparative group; 100%=full effect compared to the untreated comparative group.
(§3) (notes: the term “seeds” also includes vegetative propagation forms such as, for example, rhizome pieces; abbreviations used: h light=hours of illumination, g of AS/ha=gram of active substance per hectare, l/ha=liter per hectare, S=sensitive, R=resistant) • 1. Pre-emergence action against weeds: seeds of various broad-leaved weed and weed grass biotypes (origins) were sown in a 8-13 cm diameter pot filled with natural soil of a standard field soil (loamy silt; non-sterile) and covered with a covering soil layer of about 1 cm. The pots were then cultivated in a greenhouse (12-16 h of light, temperature day 20-22° C., night 15-18° C.) until the time of application. The pots were treated at the BBCH stage 00-10 of the seeds/plants on a laboratory track sprayer with spray liquors comprising the compositions according to the invention, mixtures or components used individually, as WG, WP, EC or other formulations. The application rate for the spray application was 100-600 l of water/ha. After the treatment, the plants were returned to the greenhouses and, when required, treated with fertilizer and watered. • 2. Post-emergence action against weeds: seeds of various broad-leaved weed and weed grass biotypes (origins) were sown in a 8-13 cm diameter pot filled with natural soil of a standard field soil (loamy silt; non-sterile) and covered with a covering soil layer of about 1 cm. The pots were then cultivated in a greenhouse (12-16 h of light, temperature day 20-22° C., night 15-18° C.) until the time of application. The pots were treated at various BBCH stages between 11-25 of the seeds/plants, i.e. generally between two to three weeks after the start of the cultivation, on a laboratory track sprayer with spray liquors comprising the compositions according to the invention, mixtures or components used individually, as WG, WP, EC or other formulations. The application rate for the spray application was 100-600 l of water/ha. After the treatment, the plants were returned to the greenhouses and, when required, treated with fertilizer and watered. • 3. Selective pre-emergence action: seeds of various crop species (origins) were sown in a 8-13 cm diameter pot filled with natural soil of a standard field soil (loamy silt; non-sterile) and covered with a covering soil layer of about 1 cm. The pots were then cultivated in a greenhouse (12-16 h of light, temperature day 20-22° C., night 15-18° C.) until the time of application. The pots were treated at the BBCH stage 00-10 of the seeds/plants on a laboratory track sprayer with spray liquors comprising the compositions according to the invention, mixtures or components used individually, as WG, WP, EC or other formulations. The application rate for the spray application was 100-600 l of water/ha. […]

Another data set deals with MATCH. Described as above. Conditions: g of AS/ha: (A) 120, (B) 1200, (C) 90, mixture 120 + 1200 + 90. The class given is in vivo, Matricaria chamomilla. As for the experimental part:
as §1, §2
(§4) (notes: the term “seeds” also includes vegetative propagation forms such as, for example, rhizome pieces; abbreviations used: h light=hours of illumination, g of AS/ha=gram of active substance per hectare, l/ha=liter per hectare, S=sensitive, R=resistant) • 1. Pre-emergence action against weeds: seeds of various broad-leaved weed and weed grass biotypes (origins) were sown in a 8-13 cm diameter pot filled with natural soil of a standard field soil (loamy silt; non-sterile) and covered with a covering soil layer of about 1 cm. The pots were then cultivated in a greenhouse (12-16 h of light, temperature day 20-22° C., night 15-18° C.) until the time of application. The pots were treated at the BBCH stage 00-10 of the seeds/plants on a laboratory track sprayer with spray liquors comprising the compositions according to the invention, mixtures or components used individually, as WG, WP, EC or other formulations. The application rate for the spray application was 100-600 l of water/ha. After the treatment, the plants were returned to the greenhouses and, when required, treated with fertilizer and watered. • 2. Post-emergence action against weeds: seeds of various broad-leaved weed and weed grass biotypes (origins) were sown in a 8-13 cm diameter pot filled with natural soil of a standard field soil (loamy silt; non-sterile) and covered with a covering soil layer of about 1 cm. The pots were then cultivated in a greenhouse (12-16 h of light, temperature day 20-22° C., night 15-18° C.) until the time of application. The pots were treated at various BBCH stages between 11-25 of the seeds/plants, i.e. generally between two to three weeks after the start of the cultivation, on a laboratory track sprayer with spray liquors comprising the compositions according to the invention, mixtures or components used individually, as WG, WP, EC or other formulations. The application rate for the spray application was 100-600 l of water/ha. After the treatment, the plants were returned to the greenhouses and, when required, treated with fertilizer and watered. • 3. […]

The next data set has as its system HORVS. The data set is described as above. The class given is in vivo, Hordeum vulgare, summer barley. As to conditions: g of AS/ha: (A) 120, (B) 1200, (C) 90, mixture 120 + 1200 + 90. As for the experimental part:
as §1, §2, §4

In data set [2] the test system is STEME. Kind of data set: Greenhouse trial, PE application on sensitive and resistant biotypes (test method 8). The format is in vivo, Stellaria media. As to conditions: g of AS/ha: (A) 90, (B) 1200, (C) 90, mixture 90 + 1200 + 90, iodosulfuron 10. As for the experimental part: as §1
About 3 weeks after the application, the soil action or/and foliar action was assessed visually according to a scale of 0-100% in comparison to an untreated comparative group: 0%=no noticeable effect compared to the untreated comparative group; 100%=full effect compared to the untreated comparative group. […]

For a further data set, the system named is ALOMY. The description is as above. The format is in vivo, Alopecurus myosuroides. As to conditions: g of AS/ha: (A) 90, (B) 1200, (C) 90, mixture 90 + 1200 + 90, iodosulfuron 10. As for the experimental part: as §1, §2, §3
Another data set concerns APESV. Nature of the data set: Greenhouse trial, PE application at different sowing depths (test method 9). The class given is in vivo, Apera Spica-venti. Conditions: g of AS/ha: (A) 120, (B) 1200, (C) 90, mixture 90 + 1200 + 90. Here is the method:
as §1, §2
(notes: the term “seeds” also includes vegetative propagation forms such as, for example, rhizome pieces; abbreviations used: h light=hours of illumination, g of AS/ha=gram of active substance per hectare, l/ha=liter per hectare, S=sensitive, R=resistant) • 1. Pre-emergence action against weeds: seeds of various broad-leaved weed and weed grass biotypes (origins) were sown in a 8-13 cm diameter pot filled with natural soil of a standard field soil (loamy silt; non-sterile) and covered with a covering soil layer of about 1 cm. The pots were then cultivated in a greenhouse (12-16 h of light, temperature day 20-22° C., night 15-18° C.) until the time of application. […]

A further data set concerns TRZAW. Described as above. The class given is in vivo, Triticum aestivum, winter wheat. Conditions: g of AS/ha: (A) 120, (B) 1200, (C) 90, mixture 90 + 1200 + 90. As for the experimental part:
as §1, §2
(notes: the term “seeds” also includes vegetative propagation forms such as, for example, rhizome pieces; abbreviations used: h light=hours of illumination, g of AS/ha=gram of active substance per hectare, l/ha=liter per hectare, S=sensitive, R=resistant) • 1. Pre-emergence action against weeds: seeds of various broad-leaved weed and weed grass biotypes (origins) were sown in a 8-13 cm diameter pot filled with natural soil of a standard field soil (loamy silt; non-sterile) and covered with a covering soil layer of about 1 cm. The pots were then cultivated in a greenhouse (12-16 h of light, temperature day 20-22° C., night 15-18° C.) until the time of application. The pots were treated at the BBCH stage 00-10 of the seeds/plants on a laboratory track sprayer with spray liquors comprising the compositions according to the invention, mixtures or components used individually, as WG, WP, EC or other formulations. The application rate for the spray application was 100-600 l of water/ha. After the treatment, the plants were returned to the greenhouses and, when required, treated with fertilizer and watered. • 2. Post-emergence action against weeds: seeds of various broad-leaved weed and weed grass biotypes (origins) were sown in a 8-13 cm diameter pot filled with natural soil of a standard field soil (loamy silt; non-sterile) and covered with a covering soil layer of about 1 cm. The pots were then cultivated in a greenhouse (12-16 h of light, temperature day 20-22° C., night 15-18° C.) until the time of application. […]

Regarding `CCC(CC)Nc1c([N+](=O)[O-])cc(C)c(C)c1[N+](=O)[O-]` [(B) pendimethalin, N-(1-ethylpropyl)-3,4-dimethyl-2,6-dinitrobenzenamine], in the data set with STEME [1] (IU soil), the “activity STEME IU soil (visual, scale 0-100%)” value amounted to 85%. Further, the “Difference of the soil types, STEME” value with STEME [1] (IU/EC73 soil versus IU soil) is on record as −30%. Besides, the “activity STEME IU/EC73 soil (visual, scale 0-100%)” value in the data set on STEME [1] (IU/EC73 soil) was found to be 55%. For the same molecule, the “activity MATCH IU soil (visual, scale 0-100%)” value in the data set with MATCH (IU soil) is 10%. Besides, in the data set on MATCH (IU/EC73 soil versus IU soil), the “Difference of the soil types, MATCH” value is given as −10%. For the same molecule, the “activity MATCH IU/EC73 soil (visual, scale 0-100%)” value with MATCH (IU/EC73 soil) turned out to be 0%. Also, in the data set on HORVS (IU soil), the “activity on crop plant HORVS IU soil (visual, scale 0-100%)” value amounted to 20%. Also, the “Difference (of the soil types), HORVS” value with HORVS (IU/EC73 soil versus IU soil) is −20%. Moreover, the “activity on crop plant HORVS IU/EC73 soil (visual, scale 0-100%)” value in the data set with HORVS (IU/EC73 soil) is 0%. Besides, the “activity STEME resistant (visual, scale 0-100%)” value in the data set with STEME [2] (resistant biotype) came to 10%. In addition, the “activity STEME sensitive (visual, scale 0-100%)” value in the data set with STEME [2] (sensitive biotype) amounted to 70%. For the same molecule, the “activity ALOMY resistant (visual, scale 0-100%)” value with ALOMY (resistant biotype) stood at 40%. Further, the “activity ALOMY sensitive (visual, scale 0-100%)” value with ALOMY (sensitive biotype) was determined as 30%. Besides, in the data set on APESV (sowing depth 5 mm), the “activity APESV 5 mm (visual, scale 0-100%)” value was 0%. Also, the “activity APESV 20 mm (visual, scale 0-100%)” value in the data set with APESV (sowing depth 20 mm) came out at 0%. In addition, the “activity on crop plant TRZAW 5 mm (visual, scale 0-100%)” value in the data set with TRZAW (sowing depth 5 mm) is on record as 45%. Further, the “activity on crop plant TRZAW 20 mm (visual, scale 0-100%)” value in the data set on TRZAW (sowing depth 20 mm) was 10%.
